# Columns and labels:
# [1] = test system: synaptosomes from the striatal area of rat brain (dopamine release); test: [3H]-dopamine release from striatal synaptosomes of rat brain; format: cell-based, rat (Sprague-Dawley); details: evaluated as described in Example 1
# Protocol: Dopamine release was measured by preparing synaptosomes from the striatal area of rat brain generally obtained from Sprague-Dawley rats according to the procedures set forth by Nagy, et al., J. Neurochem., Vol. 43, pp. 1114-1123 (1984). Striata from 4 rats were homogenized in 2 ml of 0.32M sucrose buffered with 5 mM HEPES (pH 7.5), using a glass-teflon tissue grinder. The homogenate was diluted to 5 ml with additional homogenization solution and centrifuged at 1000×g for 10 min. This procedure was repeated on the new pellet and the resulting supernatant was centrifuged at 12,000×g for 20 min. […] Using this method, 30 to 90 percent of the dopamine was taken up into the synaptosomes, as determined by scintillation counting following filtration through glass fiber filters soaked with 0.5 percent polyethyleneimine. […] After the addition of a 0.2 ml of a 20 μM solution of ligand, the perfusate was collected into scintillation vials at 1 min. intervals and the dopamine released was quantified by scintillation counting. Peaks of radioactivity released above background were summed and the average basal release during that time was subtracted from the total. Release was expressed as a percentage of release obtained with an equal concentration of (S)-(-)-nicotine.
# [2] = target: nicotinic cholinergic receptors; test: Inhibition of L-[3H]nicotine binding to mouse brain membranes; set-up: species or system mouse (DBA strain); details: racemic mixture of ligand, 10 nM L-[3H]nicotine, 2 hr, 4° C.
# Protocol: Mice (DBA strain) were maintained on a 12 hour light/dark cycle and were allowed free access to water and food supplied by Wayne Lab Blox, Madison, Wis. Animals used in the present studies were 60 to 90 days of age and weighed 20 to 25 g. Brain membrane preparations were obtained from pooled brain tissue of both males and females.
# Mice were killed by cervical dislocation. Brains were removed and placed on an ice-cold platform. […] Protein was determined by the method of Lowry, et al., J. Biol. Chem., Vol. 193, pp. 265-275 (1951), using bovine serum albumin as the standard.
# The binding of L-[^3 H]nicotine was measured using a modification of the method of Romano, et al., Science, Vol. 210, pp. 647-650 (1980) as described previously by Marks, et al., Mol. Pharmacol., Vol. 30, pp. 427-436 (1986). The binding of L-[^3 H]nicotine was measured using a 2 hr. incubation at 4° C. […] Nonspecific binding was determined by inclusion of 10 μM nonradioactive nicotine in the incubations. The inhibition of L-[^3 H]nicotine binding by test compounds was determined by including one of eight different concentrations of the test compound in the incubation. […] Inhibition constants (Ki values) were calculated from the IC50 values using the method of Cheng, et al., Biochem. Pharmacol., Vol. 22, pp. 3099-3108 (1973). […]
# [3] = test system: nicotinic cholinergic receptors; details: acute administration; cited from earlier work
# [4] = test system: acetylcholine release in brain tissue; details: direct action; cited from earlier work
# [5] = in vivo; cited from earlier work
# [6] = test system: nicotinic cholinergic receptors; details: chronic administration to animals; cited from earlier work
compound,measurement,setting,value
"CC(=O)C1=C(C)CC2CCC1N2C (stereo not drawn) [Example 3, 2-acetyl-3,8-dimethyl-8-azabicyclo[3.2.1]oct-2-ene]",dopamine release (in words),[1],found to provide dopamine release
"CC(=O)C1=CCC2CCC1N2C (stereo not drawn) [Ferruginine, ferruginine]",Ki,[2],3100 ± 500 nM
CN1CCCC1c1cccnc1 (stereo not drawn) [nicotine],activation of nicotinic cholinergic receptors,[3],suggested to possess an ability to activate nicotinic cholinergic receptors
same,release of acetylcholine in brain tissue,[4],elicit the release of acetylcholine in brain tissue
same,attention,[5],enhance attention
same,cognitive functions,[5],improve cognitive functions
same,number of nicotinic cholinergic receptors,[6],elicit an increase in the number of such receptors
"CC(=O)C1=C(C)CC2CCC1N2 (stereo not drawn) [Example 2, 2-acetyl-3-methyl-8-azabicyclo[3.2.1]oct-2-ene]",dopamine release (in words),[1],found to provide dopamine release
"CC(=O)C1=CCC2CCC1N2 (stereo not drawn) [Norferruginine, norferruginine]",Ki,[2],1100 ± 300 nM

# Source: patent publication US5227385A, “Method for treatment of neurodegenerative diseases” (priority 1992, dated 1993)
